According to US9856511B2, “Protease deubiquitinating inhibitor screening” (priority 2011, dated 2018):

Tested on: FaDu head and neck carcinoma
Assay: FaDu head and neck carcinoma xenograft in SCID mice
Assay type: in vivo
Details: plasma
Procedure: In order to investigate the effect of b-AP15 on tumor growth in vivo, the compound was administered to mice bearing either a human tumor or mouse xenografts. FaDu head and neck carcinoma were chosen as a SCID mouse xenograft both as a model for a p53mut tumor and since this model is suitable for studies using circulating cell death biomarkers (30). Significant inhibition of FaDu tumor growth was observed following daily treatment with b-AP15 (treated/control tumor volume, T/C=0.4, p=<0.001). Similarly b-AP15 (day on/2 day off schedule) inhibited tumor growth in C57BL/6J mice bearing lung carcinomas (T/C=0.16, p=<0.01). […] To examine whether b-AP15 promotes tumor cell death in vivo, plasma levels of cytokeratin-18 (CK18) were analyzed. […] To investigate the ability of b-AP15 to inhibit proteasome deubiquitination in vivo, accumulation of poly-ubiquitin conjugates was analyzed by means of antibodies specific for K48 linked polyubiquitin chains. Histological analysis of treated tumors confirmed the accumulation of poly-ubiquitin conjugates. […]
Animal experiments were conducted in full accordance with Swedish governmental statutory regulations on animal welfare under permission from local ethical committees. […] All mice were monitored and weighed daily. […] After injection, tumor growth was measured daily with calipers and the tumor volume calculated by the formula L=W^2=0.44. […]

C=CC(=O)N1C/C(=C\c2ccc([N+](=O)[O-])cc2)C(=O)/C(=C/c2ccc([N+](=O)[O-])cc2)C1 [b-AP15]
levels of human CK18 derived from FaDu tumors in the circulation (total CK18, p=0.01): significant increase
levels of caspase cleaved CK18 (CK18-Asp396) in circulation (compared with total levels): increased moderately
